From patent publication US8268801B2 (priority 2007, dated 2012)

System: T cell clone Z4B27
Assay: Antigen presentation assay: IFN-γ release by T cell clone Z4B27
Format: cell-based
Settings: CD1+ APC preincubated 2 h with sonicated antigen 1-10 μg/mL, 36 h, ELISA; FIG. 1; compared with unsulfated compound f and saturated comparative compound
Method: The release of IFN-γ produced by T cell clone Z4B27 prepared in accordance with the method disclosed in WO 2004/092192 in response to stimulation by the compounds of the invention was measured.
CD1+APC were preincubated at 5×10^4 cells/well for 2 h at 37° C. with sonicated antigen (1-10 μg/mL) before addition of T cells (5×10^4/well in triplicate). After 36 h released TNF-α and IFN-γ were measured using sandwich ELISA kits (Instrumentation Laboratory). Data are expressed as mean ng/mL or pg/mL±SD of triplicates. All experiments were repeated at least 2 times.

CCCCCCCCCCCCCCCCC(C)CC(C)CC(C)C=C(C)C(=O)OC1C(O)C(CO)OC(OC2OC(CO)C(O)C(O)C2OS(=O)(=O)O)C1OC(=O)CCCCCCCCCCCCCCC [compound e, 2′-O-Sulfate-2-O-hexadecanoyl-3-O-[(4S,6S,8S)-2,4,6,8-tetramethyltetracos-2-enoyl]-α,α′-D-trehalose]
IFN-γ produced by T cell clone Z4B27 in response to stimulation: better activity
